Reference: patent US20090143283A1, “Pituitary Adenylate Cyclase Activating Peptide (PACAP) Receptor (VPAC2) Agonists and Their Pharmacological Methods of Use” (Bayer Pharmaceuticals Corporation, priority 2004, published 2009)

Target: T1, VPAC1 (Homo sapiens, UniProt P32241)
T1 construct: expressed in transfected cells; host or cells: CHO
T1 sequence (P32241 31-457): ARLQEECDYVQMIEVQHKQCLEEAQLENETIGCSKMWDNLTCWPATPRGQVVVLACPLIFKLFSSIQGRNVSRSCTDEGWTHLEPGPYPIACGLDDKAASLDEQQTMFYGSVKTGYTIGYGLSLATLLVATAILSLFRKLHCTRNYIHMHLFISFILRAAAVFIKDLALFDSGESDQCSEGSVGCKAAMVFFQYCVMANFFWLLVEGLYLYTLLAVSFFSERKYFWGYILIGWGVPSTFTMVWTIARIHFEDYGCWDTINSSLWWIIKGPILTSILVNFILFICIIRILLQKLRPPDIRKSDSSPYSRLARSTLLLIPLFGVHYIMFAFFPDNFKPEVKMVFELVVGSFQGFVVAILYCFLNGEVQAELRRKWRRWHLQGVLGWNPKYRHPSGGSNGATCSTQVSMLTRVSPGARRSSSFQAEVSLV
Experiment: Elevation of cAMP, agonist activity on VPAC1
Type: cell-based
Conditions: FIG. 3
Source text: The signal is detected using a scintillation counter.

Which “agonist activity on VPAC1” value does the source give for PACAP-27 here?
Its value is “potent agonist”.
